Assay results as given in patent US20080311103A1, “Anti-Inflammatory Peptides and Methods of Use Thereof” (YEDA RESEARCH AND DEVELOPMENT CO. LTD. at THE WEIZMANN …, priority 2004, published 2008).

Experiments:
[1] = tested on: T cells; test: Chemotaxis assay: T cell migration toward SDF-1α; assay type: cell-based; conditions: concentration range 10-1000 ng/ml; SDF-1α 250 ng/ml; 3 hr
Method: The migration of ^51-[Cr]-labeled T cells was examined in […] Transwell chemotaxis apparatus (6.5-mm diameter; Corning, N.Y.), consisting of two compartments separated by polycarbonate filters (5 μm pore size) pretreated (1 hr, 37° C.) with FN (25 μg/ml). ^51-[Cr]-labeled T cells (2×10^5 in 100 μl of RPMI containing 0.1% BSA and antibiotics), which were pre-incubated with the indicated concentrations of peptides (30 min, 37° C.), were added to the upper chambers. The bottom chambers contained 0.6 ml of the same media, with or without human Stromal cell-Derived Factor-1α (SDF-1α; 250 ng/ml). After incubation at 37° C. for 3 hr (7.5% CO2-humidified atmosphere), cells that had transmigrated into the lower wells were collected, centrifuged, and lysed (in 100 μl of distilled water containing 1 M NaOH and 0.1% Triton X-100), and the radioactivity in the resulting supernatants was determined with a γ-counter. The percentage (±SD) of cell migration was calculated as the radioactivity counts in the lysates of the lower chambers (representative of the migrating cells) divided by the total counts (representative of 2×10^5 cells).

[2] = tested on: BALB/C mice; test: Con A-induced hepatic injury (acute hepatitis model); assay type: in vivo; conditions: 50 μg/mouse intraperitoneally, 2 or 3 injections before ConA, especially after 3 treatments; FIG. 10B
Method: Con A (13 mg/kg) was administered i.v. to BALB/c mice 18 hours before analysis (Bonder, C. S. et al. 2004. J. Immunol. 172: 45-53). Mice were intraperitoneally injected with the peptides of the invention 48 and 2 hours before ConA injection.
Blood analysis: 18 hours after Con A injection, blood was obtained by cardiac puncture for detection of serum alanine aminotransferase (ALT) and aspartate aminotransferase (AST). The presence of these two enzymes in serum is used as an index of hepatocellular injury. The detection of ALT and AST was performed by a commercial kit for ALT and AST (Bayer Diagnostics, Tarry town, NY, USA) using an automated Monarch Monoanalyzer 2000 (Allied, Lexington, Mass.).

[3] = tested on: anti-CD3 antibody induced TNFα secretion from T cells; test: TNFα secretion by anti-CD3 activated T cells; assay type: cell-based, human; conditions: peptide 100 ng/ml; 24 hours; ELISA; FIG. 7A
Method: (§1) Human T cells were purified and maintained in culture (RPMI containing 10% FCS, 1% Pyruvate, 1% glutamine, 1% antibiotics, 7.5% CO2, humidified atmosphere) for 15 hr before they were transferred to RPMI and activated (2 hr, 37° C.) with the indicated concentrations of the peptides. The cells were then plated (1.5×10^6 cells/0.5 ml/well) in 24 wells plates (non-tissue culture grade) precoated with anti-CD3 mAb in order to stimulate the cells to secrete cytokines. After 24 hours, the supernatants were collected and their cytokine content (TNFα and IFNγ) was determined by ELISA using anti-IFNγ and anti TNFα mAb (Pharmingen; San Diego, Calif.) according to the manufacturer's instructions.

[4] = tested on: anti-CD3 antibody induced IFNγ secretion from T cells; test: IFNγ secretion by anti-CD3 activated T cells; assay type: cell-based, human; parameters: concentration or dose not given beside the values; conditions: 24 hours; ELISA; FIG. 7B
Method: as §1

[5] = tested on: NF-κB; test: Nuclear translocation of NF-κB in T cells (Western blot); assay type: cell-based; conditions: peptide 100 ng/ml for 2 hours, then anti-CD3 mAb 24 hr; human T cells
Source text: To address the modulatory role of the wound fluid peptides on the signal transduction cascade leading to regulation of T-cell secretion of TNF-α(and IFN-γ, the nuclear translocation of NF-κB was detected by probing nuclear and cytoplasmic T-cell extracts using mAb specific for the p65 subunit of NF-κB. The nuclear protein Lamin B was used as continuatively expressed control protein for the quantification of protein amounts.
Human T cells. T cells were purified from the peripheral blood of healthy human donors (Blood Bank; Tel-Hashomer, Israel). The whole blood was incubated (20 min, 22° C.) with RosetteSep™ human T-cell enrichment cocktail (StemCell Technologies, Vancouver, BC, Canada). The remaining unsedimented cells were then loaded onto Lymphocyte Separation Medium (ICN Biomedicals; Belgium), isolated by density centrifugation, and washed with PBS. The purified cells (>95% CD3^+ T cells) so obtained were cultured in RPMI containing antibiotics and 10% heat-inactivated FCS. Western blot analysis of T-cell nuclear extracts. Purified T cells (5×10^6) were preincubated with the peptides (100 ng/ml) for 2 hours (37° C. in a 7% CO2, humidified atmosphere). The cells were then replated in 24-well plates pre-coated with anti-CD3 mAb for 24 hr (37° C. in a 7% CO2, humidified atmosphere). T cells were lysed in 10 mM HEPES, 1.5 mM MgCl2, 1 mM dithiothreitol (DTT), 1 mM PMSF, 0.5% Nonidet P-40. The lysates were incubated on ice for 10 min and centrifuged at 2000 rpm for 10 min at 4° C. The supernatants (cytoplasmic extracts) were transferred and the pellet (nuclei) was suspended in buffer containing 30 mM HEPES, 450 mM NaCl, 25% Glycerol, 0.5 mM EDTA, 6 mM DTT, 12 mM MgCl2 1 mM PMSF, 10 μg/ml leupeptin, 10 μg/ml pepstatin, 1% phosphatase inhibitor cocktail, and the suspension was incubated on ice for 30 min. The lysates were cleared by centrifugation (30 min, 14×10^3 rpm, 4° C.), and the resulting supernatants analyzed for protein content. […]

[6] = tested on: Jurkat and THP-1 cells; test: TNFα secretion by PMA/PHA induced Jurkat and THP-1 cells; assay type: cell-based, human; conditions: peptide 1 μg/ml; 48 hours; ELISA
Method: Jurkat cells human T cell lymphoma line) (2×10^6 cells/ml) cultured in RPMI-1640 supplemented with 10% FCS were activated with PMA (50 ng/ml) and phytohaemagglutinin PHA (4 µg/ml) for 6 hours at 37° C. (7.5% CO2-humidified atmosphere). Thereafter, the cells were washed, plated on 24-well plates (10^6 cells/well in 0.5 ml), and incubated (1 hour at 37° C., 7.5% CO2-humidified atmosphere) with the indicated concentrations of peptides 1-5. Following the incubation, THP-1 cells (human monocytic cell line derived from a patient with acute monocytic leukaemia; 1.25×10^5 cells/0.5 ml/well) were added to the wells. After 48 hours, the supernatants were collected and their TNF[…] content was determined by ELISA using anti TNF[…] mAb (Pharmingen; San Diego, Calif.) according to the manufacturer's instructions.

[7] = tested on: mice sensitized with oxazolone; assay type: in vivo, mouse; conditions: FIG. 1; peptides by implanted osmotic pump, 0.2 μg/hour for 7 days; ear measured 24 hours after oxazolone challenge; BALB/c mice
Method: Groups of 5 female inbred BALB/c mice (The Jackson Laboratory, Bar Harbor, Me.) were sensitized on the shaved abdominal skin with 2% oxazolone (100 μl) dissolved in acetone/olive oil [4:1 (vol/vol)] applied topically. Delayed type hypersensitivity (DTH) was elicited 5 days later by challenging the mice with 0.5% oxazolone in acetone/olive oil (10 μl given topically to each side of the ear). A constant area of the ear was measured immediately before and 24 hours after the challenge using a Mitutoyo engineer's micrometer. The percent inhibition of DTH is calculated as follows:
% Inhibition=[1-{(treated−negative control)/(positive control−negative control)}]×100.
The positive control is the DTH reaction to oxazolone elicited in sensitized mice without treatment. The negative control is the background swelling produced by the oxazolone antigen in naïve non-sensitized mice.
Peptides Nos. 1-5 were given to the mice by mini perfusion pumps (alzet osmotic pump model 2001), which contained the indicated peptide (40 μg; 200 μl). The pumps were implanted under the mouse skin one day before oxazolone sensitization and they released the peptide in a rate of 1 μl per hour (0.2 μg/hour) for 7 days.
Peptides Nos. 6-10 were given to the mice by subcutaneously injection (1 μg or 10 μg per mouse), every day, starting at one day before oxazolone sensitization and ending at day 5 post DTH initiation.

In the case of “LSALEEYTKKLNTQ [peptide No. 2, residues 254-267 of Apo A-I; identified in wound fluids, then synthesized]”, the “inhibition of T cell transmigration toward SDF-1α” value [1] is reported as “did not show a significant inhibition”, the “resistance to ConA induced hepatitis” value [2] is reported as “marked resistance” and the “inhibition of anti-CD3 antibody induced TNFα secretion from T cells” value [3] is reported as 40%. The “inhibition of anti-CD3 antibody induced IFNγ secretion from T cells” value [4] was about 30%, the “NF-κB translocation to the nucleus” value [5] was “significant down-regulation” and the “inhibition of TNFα secretion by Jurkat and THP-1 cells compared to PMA/PHA alone” value [6] was 10%. The “inhibition of DTH response” value [7] was “hardly inhibited”.
